Assay results: patent publication US11000033B2, “Ketone or oxime compound, and herbicide” (NISSAN CHEMICAL CORPORATION, priority 2014, dated 2021)

Columns and labels:
Assay type in all cases: in vivo
wheat [1] = test: Test Example 4: effect on crop by soil treatment (symbol e)
Summary of the method: (§1)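 Crop seed is sown in spots together with several weed species in a box of sterilized diluvial soil. It is covered by about 1.5 cm of soil and kept in a greenhouse held between 25° C. and 30° C.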

rapeseed = test: Test Example 4: effect on crop by soil treatment (symbol g)
Summary of the method: as §1

beet = test: Test Example 4: effect on crop by soil treatment (symbol f)
Summary of the method: as §1

Stellaria media = test: Test Example 5: herbicidal effect by foliage application, plastic box (symbol P); settings: 320 g/ha, 3 weeks after application
Summary of the method: (§2)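 Herbicide, formulated as an emulsion and diluted in water, is sprayed onto the aerial parts of 14-day seedlings. These were grown at 25° C. to 30° C. in sterilized diluvial soil; effects are graded after 3 weeks.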

rice plant = test: Test Example 5: effect on crop by foliage application, plastic box (symbol b); settings: 320 g/ha, 3 weeks after application
Summary of the method: (§3)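 Diluvial soil, sterilized and boxed (21 × 13 × 7 cm), received spot-sown seed covered by about 1.5 cm soil; plants were then greenhouse-grown at 25–30° C.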

Abutilon theophrasti = test: Test Example 5: herbicidal effect by foliage application, plastic box (symbol M); settings: 320 g/ha, 3 weeks after application
Summary of the method: as §2

[2] = system: Echinochloa oryzacola Vasing.; test: Test Example 1: herbicidal activity, application before weed generation in submerged conditions (symbol A); settings: application herbicide amount 320 g/ha
Summary of the method: (§4)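 In a flooded pot test with alluvial soil, the emulsion-formulated compound was diluted with water to a predetermined amount and applied to the floodwater immediately on the sowing day. Pots were held in a greenhouse at 25–30 °C for 3 weeks before each weed was rated.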

rice = test: Test Example 4: effect on crop by soil treatment (symbol b)
Summary of the method: as §1

Monochoria vaginalis = test: Test Example 1: herbicidal activity, application before weed generation in submerged conditions (symbol C); settings: application herbicide amount 320 g/ha
Summary of the method: as §4

Avena fatua = test: Test Example 5: herbicidal effect by foliage application, plastic box (symbol I); settings: 320 g/ha, 3 weeks after application
Summary of the method: as §2

Apera spica-venti = test: Test Example 5: herbicidal effect by foliage application, plastic box (symbol L); settings: 320 g/ha, 3 weeks after application
Summary of the method: as §2

Chenopodium album [3] = test: Test Example 5: herbicidal effect by foliage application, plastic box (symbol O); settings: 320 g/ha, 3 weeks after application
Summary of the method: as §2

Amaranthus retroflexus = test: Test Example 4: herbicidal effect by soil treatment (symbol N)
Summary of the method: (§5)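 Seeds were sown in sterilized diluvial soil, covered with about 1.5 cm of soil, and the soil surface was sprayed with a water-diluted emulsion of the compound at a predetermined rate. Plants grew in a greenhouse at 25° C. to 30° C.; effects were scored visually 3 weeks after application.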

Cyperus difformis = test: Test Example 3: herbicidal effect by foliage application, Wagner pot (symbol E); settings: application herbicide amount 320 g/ha; for E herbicidal effect grade: Table 24
Summary of the method: (§6)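 Rating at 3 weeks post-spray, by defined criteria. Treatment: emulsion diluted with water to a predetermined amount, applied evenly to foliage of 14-day-old plants raised in alluvial soil flooded 0.1–0.5 cm deep at 25–30 °C, rice co-sown.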

Galium spurium = test: Test Example 4: herbicidal effect by soil treatment (symbol Q)
Summary of the method: as §5

Lolium multiflorum Lam. = test: Test Example 4: herbicidal effect by soil treatment (symbol K)
Summary of the method: as §5

Leptochloa chinensis = test: Test Example 3: herbicidal effect by foliage application, Wagner pot (symbol D); settings: application herbicide amount 320 g/ha; for D (Leptochloa chinensis) herbicidal effect grade: Table 24
Summary of the method: as §6

wheat [4] = test: Test Example 5: effect on crop by foliage application, plastic box (symbol e); settings: 320 g/ha, 3 weeks after application
Summary of the method: as §3

Chenopodium album [5] = test: Test Example 4: herbicidal effect by soil treatment (symbol O)
Summary of the method: as §5

[6] = application herbicide amount 320 g/ha

SMILES: CON=C(C)CC1CC(OC(C)=O)=C(c2c(C)cc(C)cc2C)C1=O (stereo not drawn) [1-005]
- e (wheat) effect on crop grade (wheat [1]; [6]): 4 (Herbicidal ratio of 70% or higher and lower than 90%)
- g (rapeseed) effect on crop grade (rapeseed; [6]): 4 (Herbicidal ratio of 70% or higher and lower than 90%)
- f (beet) effect on crop grade (beet; [6]): 4 (Herbicidal ratio of 70% or higher and lower than 90%)
- P: Stellaria media, herbicidal effect grade (Stellaria media): 4 (Herbicidal ratio of 70% or higher and lower than 90%)
- b: directly sowed rice plant, effect on crop grade (rice plant): 5 (Herbicidal ratio of 90% or more (almost completely withered))
- M: Abutilon theophrasti, herbicidal effect grade (Abutilon theophrasti): 4 (Herbicidal ratio of 70% or higher and lower than 90%)
- Herbicidal effect grade, A: Echinochloa oryzacola Vasing. [2]: 5 (Herbicidal ratio of 90% or more (almost completely withered))
- b (directly sowed rice plant) effect on crop grade (rice; [6]): 5 (Herbicidal ratio of 90% or more (almost completely withered))
- Herbicidal effect grade, C: Monochoria vaginalis (Monochoria vaginalis): 5 (Herbicidal ratio of 90% or more (almost completely withered))
- I: Avena fatua, herbicidal effect grade (Avena fatua): 5 (Herbicidal ratio of 90% or more (almost completely withered))
- L: Apera spica-venti, herbicidal effect grade (Apera spica-venti): 5 (Herbicidal ratio of 90% or more (almost completely withered))
- O: Chenopodium album, herbicidal effect grade (Chenopodium album [3]): 3 (Herbicidal ratio of 40% or higher and lower than 70%)
- N (Amaranthus retroflexus) herbicidal effect grade (Amaranthus retroflexus; [6]): 5 (Herbicidal ratio of 90% or more (almost completely withered))
- herbicidal effect on E, grade 0-5 (Cyperus difformis): 5 (Herbicidal ratio of 90% or more (almost completely withered))
- Q (Galium spurium) herbicidal effect grade (Galium spurium; [6]): 0 (Herbicidal ratio of 5% or lower (almost no effect))
- K (Lolium multiflorum Lam.) herbicidal effect grade (Lolium multiflorum Lam.; [6]): 5 (Herbicidal ratio of 90% or more (almost completely withered))
- herbicidal effect on D (Leptochloa chinensis), grade 0-5 (Leptochloa chinensis): 5 (Herbicidal ratio of 90% or more (almost completely withered))
- e: wheat, effect on crop grade (wheat [4]): 5 (Herbicidal ratio of 90% or more (almost completely withered))
- O (Chenopodium album) herbicidal effect grade (Chenopodium album [5]; [6]): 0 (Herbicidal ratio of 5% or lower (almost no effect))

SMILES: CC#Cc1cc(C)c(C2=C(O)CC(CC(=NOC)C(C)C)C2=O)c(C)c1 (stereo not drawn) [9-006]
- Effect on crop grade, e: wheat (wheat [1]; [6]): 5 (Herbicidal ratio of 90% or more (almost completely withered))
- Effect on crop grade, g: rapeseed (rapeseed; [6]): 3 (Herbicidal ratio of 40% or higher and lower than 70%)
- Effect on crop grade, f: beet (beet; [6]): 0 (Herbicidal ratio of 5% or lower (almost no effect))
- P: Stellaria media, herbicidal effect grade (Stellaria media): 3 (Herbicidal ratio of 40% or higher and lower than 70%)
- b: directly sowed rice plant, effect on crop grade (rice plant): 5 (Herbicidal ratio of 90% or more (almost completely withered))
- M: Abutilon theophrasti, herbicidal effect grade (Abutilon theophrasti): 0 (Herbicidal ratio of 5% or lower (almost no effect))
- A (Echinochloa oryzacola Vasing.) herbicidal effect grade [2]: 5 (Herbicidal ratio of 90% or more (almost completely withered))
- Effect on crop grade, b: directly sowed rice plant (rice; [6]): 5 (Herbicidal ratio of 90% or more (almost completely withered))
- C (Monochoria vaginalis) herbicidal effect grade (Monochoria vaginalis): 0 (Herbicidal ratio of 5% or lower (almost no effect))
- I: Avena fatua, herbicidal effect grade (Avena fatua): 4 (Herbicidal ratio of 70% or higher and lower than 90%)
- L: Apera spica-venti, herbicidal effect grade (Apera spica-venti): 5 (Herbicidal ratio of 90% or more (almost completely withered))
- O: Chenopodium album, herbicidal effect grade (Chenopodium album [3]): 2 (Herbicidal ratio of 20% or higher and lower than 40%)
- Herbicidal effect grade, N: Amaranthus retroflexus (Amaranthus retroflexus; [6]): 2 (Herbicidal ratio of 20% or higher and lower than 40%)
- E herbicidal effect grade (Cyperus difformis): 5 (Herbicidal ratio of 90% or more (almost completely withered))
- Herbicidal effect grade, Q: Galium spurium (Galium spurium; [6]): 0 (Herbicidal ratio of 5% or lower (almost no effect))
- Herbicidal effect grade, K: Lolium multiflorum Lam. (Lolium multiflorum Lam.; [6]): 5 (Herbicidal ratio of 90% or more (almost completely withered))
- D (Leptochloa chinensis) herbicidal effect grade (Leptochloa chinensis): 5 (Herbicidal ratio of 90% or more (almost completely withered))
- e: wheat, effect on crop grade (wheat [4]): 5 (Herbicidal ratio of 90% or more (almost completely withered))
- Herbicidal effect grade, O: Chenopodium album (Chenopodium album [5]; [6]): 0 (Herbicidal ratio of 5% or lower (almost no effect))

SMILES: CON=C(CC1CC(OC(=O)N2CCOCC2)=C(c2c(C)cc(C)cc2OC)C1=O)C1CC1 (mixture of isomers) [13-005]
- e: wheat, effect on crop grade (wheat [1]; [6]): 1 (Herbicidal ratio of 5% or higher and lower than 20%)
- g: rapeseed, effect on crop grade (rapeseed; [6]): 0 (Herbicidal ratio of 5% or lower (almost no effect))
- f: beet, effect on crop grade (beet; [6]): 0 (Herbicidal ratio of 5% or lower (almost no effect))
- P: Stellaria media, herbicidal effect grade (Stellaria media): 0 (Herbicidal ratio of 5% or lower (almost no effect))
- b: directly sowed rice plant, effect on crop grade (rice plant): 5 (Herbicidal ratio of 90% or more (almost completely withered))
- M: Abutilon theophrasti, herbicidal effect grade (Abutilon theophrasti): 0 (Herbicidal ratio of 5% or lower (almost no effect))
- A (Echinochloa oryzacola Vasing.) herbicidal effect grade [2]: 5 (Herbicidal ratio of 90% or more (almost completely withered))
- b: directly sowed rice plant, effect on crop grade (rice; [6]): 1 (Herbicidal ratio of 5% or higher and lower than 20%)
- C (Monochoria vaginalis) herbicidal effect grade (Monochoria vaginalis): 2 (Herbicidal ratio of 20% or higher and lower than 40%)
- I: Avena fatua, herbicidal effect grade (Avena fatua): 5 (Herbicidal ratio of 90% or more (almost completely withered))
- L: Apera spica-venti, herbicidal effect grade (Apera spica-venti): 5 (Herbicidal ratio of 90% or more (almost completely withered))
- O: Chenopodium album, herbicidal effect grade (Chenopodium album [3]): 0 (Herbicidal ratio of 5% or lower (almost no effect))
- N: Amaranthus retroflexus, herbicidal effect grade (Amaranthus retroflexus; [6]): 0 (Herbicidal ratio of 5% or lower (almost no effect))
- E herbicidal effect grade (Cyperus difformis): 5 (Herbicidal ratio of 90% or more (almost completely withered))
- Q: Galium spurium, herbicidal effect grade (Galium spurium; [6]): 0 (Herbicidal ratio of 5% or lower (almost no effect))
- K: Lolium multiflorum Lam., herbicidal effect grade (Lolium multiflorum Lam.; [6]): 5 (Herbicidal ratio of 90% or more (almost completely withered))
- D (Leptochloa chinensis) herbicidal effect grade (Leptochloa chinensis): 5 (Herbicidal ratio of 90% or more (almost completely withered))
- e: wheat, effect on crop grade (wheat [4]): 5 (Herbicidal ratio of 90% or more (almost completely withered))
- O: Chenopodium album, herbicidal effect grade (Chenopodium album [5]; [6]): 0 (Herbicidal ratio of 5% or lower (almost no effect))

SMILES: CC(CC1CC(O)=C(c2c(C)cc(C)cc2C)C1=O)=NOC1CCCC1 (stereo not drawn) [1-106]
- e: wheat, effect grade on crop (wheat [1]; 320 g/ha): 3 (Herbicidal ratio of 40% or higher and lower than 70%)
- g: rapeseed, effect grade on crop (rapeseed; 320 g/ha): 3 (Herbicidal ratio of 40% or higher and lower than 70%)
- f: beet, effect grade on crop (beet; 320 g/ha): 0 (Herbicidal ratio of 5% or lower (almost no effect))
- P: Stellaria media, herbicidal effect (criteria 0-5) (Stellaria media): 2 (Herbicidal ratio of 20% or higher and lower than 40%)
- b: directly sowed rice plant, effect on crop (criteria 0-5) (rice plant): 5 (Herbicidal ratio of 90% or more (almost completely withered))
- M: Abutilon theophrasti, herbicidal effect (criteria 0-5) (Abutilon theophrasti): 1 (Herbicidal ratio of 5% or higher and lower than 20%)
- Herbicidal effect grade, A: Echinochloa oryzacola Vasing. [2]: 5 (Herbicidal ratio of 90% or more (almost completely withered))
- b: directly sowed rice plant, effect grade on crop (rice; 320 g/ha): 5 (Herbicidal ratio of 90% or more (almost completely withered))
- I: Avena fatua, herbicidal effect (criteria 0-5) (Avena fatua): 5 (Herbicidal ratio of 90% or more (almost completely withered))
- L: Apera spica-venti, herbicidal effect (criteria 0-5) (Apera spica-venti): 5 (Herbicidal ratio of 90% or more (almost completely withered))
- O: Chenopodium album, herbicidal effect (criteria 0-5) (Chenopodium album [3]): 2 (Herbicidal ratio of 20% or higher and lower than 40%)
- N: Amaranthus retroflexus, herbicidal effect grade (Amaranthus retroflexus; 320 g/ha): 0 (Herbicidal ratio of 5% or lower (almost no effect))
- herbicidal effect on E, grade 0-5 (Cyperus difformis): 5 (Herbicidal ratio of 90% or more (almost completely withered))
- Q: Galium spurium, herbicidal effect grade (Galium spurium; 320 g/ha): 0 (Herbicidal ratio of 5% or lower (almost no effect))
- K: Lolium multiflorum Lam., herbicidal effect grade (Lolium multiflorum Lam.; 320 g/ha): 5 (Herbicidal ratio of 90% or more (almost completely withered))
- herbicidal effect on D (Leptochloa chinensis), grade 0-5 (Leptochloa chinensis): 5 (Herbicidal ratio of 90% or more (almost completely withered))
- e: wheat, effect on crop (criteria 0-5) (wheat [4]): 4 (Herbicidal ratio of 70% or higher and lower than 90%)
- O: Chenopodium album, herbicidal effect grade (Chenopodium album [5]; 320 g/ha): 0 (Herbicidal ratio of 5% or lower (almost no effect))
